Assay [1] deals with truncated AIF (tAIF, 57 kDa). In words: Immunoblot of truncated AIF in ISO/Ca2+-treated ES-CMs (chronic CAPN1 inhibition). The settings on record: Dsg2^mut/mut ES-CMs, 7 days 50 μM ISO/1 μM Ca2+, calpeptin pretreatment. Format: cell-based, mouse. The protocol:
Mouse embryonic stem cells (ESs) were maintained and differentiated, and the absence of mycoplasma contamination was confirmed prior to experimental studies. Briefly, mouse ESs from both WT and Dsg2^mut/mut mice were derived from E3.5 embryos and maintained on gelatin-coated dishes in maintenance medium (Glasgow minimum essential medium supplemented with 10% fetal bovine serum and 3 μM Chir99021 and 1 μM PD98059 or 1000 U/ml ESGRO; Millipore), Glutamax, sodium pyruvate, and MEM non-essential amino acids (Thermo Fisher Scientific). For cardiomyocyte (CM) differentiation, ESs were plated in IMDM/Ham's F12 (Cellgro, at 3:1) supplemented with N2, B27, penicillin/streptomycin, 2 mM GlutaMAX, 0.05% BSA, 5 ng/ml L-ascorbic acid (Sigma-Aldrich), and α-monothioglycerol (MTG; Sigma-Aldrich) at a final density of 100,000 cells/ml to allow spheroid formation. After 48 hours, embryoid bodies were collected and transferred to ultra-low attachment plastic surface and induced for 40 hours with Activin A and Bmp4 (R&D Systems). Cells were then dissociated and plated as monolayers for 48 hours in the presence of 10 μM XAV to allow cardiomyocyte differentiation. The resulting ES-CMs were cultured 45 days before experimental procedures were performed.

For assay [2], the system named is HL-1 cells. The assay is described as follows: Cell viability assay (LDH release) in HL-1 cells under Ca2+ overload. The format is cell-based, mouse. The settings on record: Calcimycin 1 μM in HBS KV medium, dose-dependent response. Here is the method:
Calcium (Ca^2+) Overload Protocol: Rapid and sustained intracellular Ca^2+ overload was obtained by adding the Ca^2+-ionophore, calcimycin (1 μM), to HL-1 cells incubated for 10 min in HBS KV medium (1.26 mM CaCl2, 0.81 mM MgSO4, 0.44 mM KH2PO4, 142 mM KCl, 0.27 mM K2HPO4, 5.55 mM D-glucose, 1 mM Na3VO4, 20 mM Hepes pH 7.4). To monitor intracellular Ca^2+ variations, HL-1 cells were loaded with 5 μM Fluo-4 FF AM (Molecular Probes) in HBS Na (Sigma) for 30 min before the media was replaced with HBS KV. […] Cell Viability Assay: HL-1 plasma membrane integrity was assessed by measuring lactate dehydrogenase (LDH) release in the culture supernatant. An enzymatic assay evaluated LDH activity. Samples of the cell-free culture supernatant were collected at indicated times in Figures/Figure Legends, while cells were lysed in 1% (w/v) Triton X-100 at the end of each experiment to estimate the remaining cellular content of LDH. The LDH activity at each time point was expressed as a percentage of total LDH activity.

The target in assay [3] is T1, CAPN1 (Mus musculus, UniProt O35350).
T1 construct: endogenous in cells; host or cells: HL-1 cardiomyocytes
T1 sequence (O35350 1-713): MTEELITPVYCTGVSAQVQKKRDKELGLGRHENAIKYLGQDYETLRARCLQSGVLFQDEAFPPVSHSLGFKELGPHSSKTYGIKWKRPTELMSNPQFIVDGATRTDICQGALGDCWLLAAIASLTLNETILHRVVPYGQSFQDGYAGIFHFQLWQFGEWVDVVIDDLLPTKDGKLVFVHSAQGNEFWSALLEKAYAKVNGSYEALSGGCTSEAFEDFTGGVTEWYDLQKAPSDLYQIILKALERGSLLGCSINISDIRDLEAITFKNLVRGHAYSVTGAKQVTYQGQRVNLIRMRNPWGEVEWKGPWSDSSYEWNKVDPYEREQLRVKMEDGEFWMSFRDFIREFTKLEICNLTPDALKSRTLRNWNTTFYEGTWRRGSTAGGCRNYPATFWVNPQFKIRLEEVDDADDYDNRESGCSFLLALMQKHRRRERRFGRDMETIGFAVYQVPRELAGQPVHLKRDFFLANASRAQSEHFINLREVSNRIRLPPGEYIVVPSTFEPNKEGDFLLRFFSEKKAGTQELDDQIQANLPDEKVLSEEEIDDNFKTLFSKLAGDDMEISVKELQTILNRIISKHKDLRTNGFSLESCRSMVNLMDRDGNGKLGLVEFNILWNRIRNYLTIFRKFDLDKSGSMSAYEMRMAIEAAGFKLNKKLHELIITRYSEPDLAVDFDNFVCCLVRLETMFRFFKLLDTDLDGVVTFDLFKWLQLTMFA
T1 sequence (O88456 1-268 partner): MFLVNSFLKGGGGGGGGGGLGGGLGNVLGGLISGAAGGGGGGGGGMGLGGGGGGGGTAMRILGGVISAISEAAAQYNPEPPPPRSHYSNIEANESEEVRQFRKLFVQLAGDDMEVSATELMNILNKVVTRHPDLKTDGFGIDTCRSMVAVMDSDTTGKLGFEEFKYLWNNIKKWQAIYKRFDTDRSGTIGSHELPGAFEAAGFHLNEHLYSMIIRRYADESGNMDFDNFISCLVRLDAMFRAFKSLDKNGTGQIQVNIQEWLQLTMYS
The assay is described as follows: Western blot of CAPN1 in purified mitochondria from HL-1 cells under Ca2+ overload. Format: cell-based. The settings on record: Ca2+ overload (HBS KVC), calpeptin 50 μM, PD150606 10 μM. The protocol:
Calcium (Ca^2+) Overload Protocol: Rapid and sustained intracellular Ca^2+ overload was obtained by adding the Ca^2+-ionophore, calcimycin (1 μM), to HL-1 cells incubated for 10 min in HBS KV medium (1.26 mM CaCl2, 0.81 mM MgSO4, 0.44 mM KH2PO4, 142 mM KCl, 0.27 mM K2HPO4, 5.55 mM D-glucose, 1 mM Na3VO4, 20 mM Hepes pH 7.4). To monitor intracellular Ca^2+ variations, HL-1 cells were loaded with 5 μM Fluo-4 FF AM (Molecular Probes) in HBS Na (Sigma) for 30 min before the media was replaced with HBS KV. The fluorescence was recorded using a fluorimeter plate reader (Fluoroskan Ascent Labsystem) at wavelength settings of 485/530 nm for excitation/emission, respectively.
Mitochondria Isolation Protocol: Mitochondria were isolated from HL-1 cells in percoll density gradient. Briefly, 30×10^6 adherent cells were harvested with Trypsin/EDTA, centrifuged at 500×g for 10 min, washed in buffer A (100 mM sucrose, 1 mM EGTA, 20 mM MOPS, pH 7.4, and 1 mg/mL BSA) before cell disruption with a Dounce homogenizer. The suspension was centrifuged twice at 500× g for 5 min and the resulting supernatant at 10,000×g for 10 min at 4° C. The pellet was re-suspended in buffer B (300 mM sucrose, 1 mM EGTA, 20 mM MOPS pH 7.4, 1 mg/mL BSA), and the homogenate was layered on a two-phase (25% and 40%) percoll density gradient. […]

For `CCCC[C@@H](C=O)NC(=O)[C@H](CC(C)C)NC(=O)OCc1ccccc1` [calpeptin], the “levels of tAIF (57 kDa)” value in assay [1] is “significantly lowered”. Moreover, the “reduction in cell death (LDH release)” value in assay [2] is listed as about 40%. Further, the “mitochondrial CAPN1 translocation” value in assay [3] is reported as “failed to prevent”.

The record behind these values is patent US20240109937A1, “BINDING PEPTIDES AND USES THEREOF” (The Johns Hopkins University, priority 2021, published 2024).
